Results from the NIST ThermoML archive (doi:10.1016/j.fluid.2019.01.021).
Numbers after ± are expanded uncertainties.

Settings: Liquid, Capillary tube (Ostwald / Ubbelohde) method

CCC(C)CC(C)(C)C (stereo unspecified) [2,2,4-trimethylhexane]
293.15 K
Settings	viscosity [mPa·s]
100 kPa	0.64 ± 0.064
25000 kPa	0.844 ± 0.084
50000 kPa	1.101 ± 0.11
100000 kPa	1.71 ± 0.17
150000 kPa	2.54 ± 0.25
250000 kPa	5.31 ± 0.56
350000 kPa	10.67 ± 1.3
400000 kPa	15 ± 2.1
500000 kPa	30.9 ± 4.8
600000 kPa	62.9 ± 12
700000 kPa	126.9 ± 29
800000 kPa	264 ± 79
900000 kPa	558 ± 220
1000000 kPa	1187

CC(C)CC(C)(C)C [2,2,4-trimethylpentane]
298.15 K
Settings	viscosity [mPa·s]
100 kPa	0.48 ± 0.047
26000 kPa	0.641 ± 0.061
50000 kPa	0.809 ± 0.076
100000 kPa	1.207 ± 0.11
200000 kPa	2.35 ± 0.23
312000 kPa	4.41 ± 0.47
407000 kPa	7.7 ± 0.89
499000 kPa	12.63 ± 1.6
600000 kPa	21.3 ± 3
700000 kPa	36.4 ± 5.8
800000 kPa	61.5 ± 11
900000 kPa	104.8 ± 22
